In US8637252B2, “Methods and compositions for determining altered susceptibility of HIV-1 to anti-HIV drugs” (Monogram Biosciences, Inc., priority 2011, dated 2014):
Several values for one entry are separate records, joined by “and”; a condition that tells them apart may be missing. Equal entries are not always repeated.

System: HIV-1 (patient-derived POL segment)
Experiment: phenotypic drug resistance test, resistance test vectors with patient-derived POL segment (entire pol gene), luciferase, 293 cells
Assay type: cell-based
From the text: Patient-derived segment(s) corresponding to the entire pol gene, encoding HIV protease, reverse transcriptase (including RNAse H), and integrase (hereinafter “POL”), the portion of pol encoding amino acids 1-305 of reverse transcriptase (hereinafter “PR-RT”), the portion of pol encoding amino acids 319-440 of reverse transcriptase (including RNAse H), and integrase (hereinafter “RHIN”), were amplified by the reverse transcription-polymerase chain reaction method (RT-PCR) using viral RNA isolated from viral particles present in the plasma or serum of HIV-infected individuals as described below. The portion of pol encoding protease, amino acids 1-531 of reverse transcriptase (including RNase H) (hereinafter “PRRT-RH”), or the portion of pol encoding protease, reverse transcriptase (including RNAse H) and integrase (hereinafter “PRRT-RHIN”), were assembled from amplicons described above by standard recombinant DNA techniques involving a KpnI restriction site at amino acid 400 or a Pin A1 site at amino acid 315.
Virus was pelleted by centrifugation at 20,400×g for 60 min from plasma (typically, 1 ml) prepared from blood samples collected in evacuated tubes containing either EDTA, acid-citrate dextrose, or heparin as an anticoagulant. Virus particles were disrupted by resuspending the pellets in 200 [1.1 of lysis buffer (4 M guanidine thiocyanate, 0.1 M Tris HCl (pH 8.0), 0.5% sodium lauryl sarcosine, 1% dithiothreitol). RNA was extracted from viral lysates by using oligo(dT) linked to magnetic beads (Dynal, Oslo, Norway). Reverse transcription was performed with Superscript III (Invitrogen) at 50 degrees for 1 hour using primer 1.
From the resultant cDNA either POL or RHIN sequences were amplified using the Advantage High Fidelity PCR kit (BD Biosciences; Clontech). POL amplification products are made using forward Primer 3 containing an Apal site and reverse Primer 4 containing a Xho 1 site. RHIN amplification products are made using forward Primer 2 containing a P1NA1 site and reverse Primer 4 containing a Xho 1 site.
A retroviral vector designed to measure antiretroviral drug susceptibility was constructed by using an infectious molecular clone of HIV-1. The vector, referred to herein as an indicator gene viral vector (IGVV), is replication defective and contains a luciferase expression cassette inserted within a deleted region of the envelope (env) gene. The IGVV is described in U.S. Pat. No. 5,837,464 (International Publication Number WO 97/27319) which is hereby incorporated by reference in its entirety. This retroviral vector was further modified to allow insertion of either the entire pol gene (POL) or the portion of poi encoding amino acids 319-440 of reverse transcriptase, the RNase H portion of reverse transcriptase, and integrase (REIN) by engineering an Xho l restriction enzyme recognition site into vif. Prior to doing this, an Xho 1 site in nef was deleted. Resistance Test vectors (RTVs) were constructed by incorporating amplified POL or RHIN into the IGVV by using Apal and Xhol or PinAI and Xho 1 restriction sites respectively. RTVs were prepared as libraries (pools) in order to capture and preserve the pol or RHIN sequence heterogeneity of the virus in the patient. POL amplification products were digested with Apal and Xhol, purified by agarose gel electrophoresis, and ligated to ApaI- and Xhol-digested IGVV DNA. RHIN amplification products were digested with PinAI and Xho/, purified by agarose gel electrophoresis, and ligated to PinAI and Xhol-digested IGVV DNA. Ligation reactions were used to transform competent Escherichia coli (Invitrogen, Carlsbad, Calif.). An aliquot of each transformation was plated onto agar, and colony counts were used to estimate the number of patient-derived segments represented in each RTV library. RTV libraries that comprised less than 50 members are not considered representative of the patient virus. […]

[1] = Sample 47 (K103K/N, V106V/A, Y181Y/C, G190G/A)
[2] = Sample 58 (K103N, Y181Y/C, G190G/A)
[3] = Sample 62 (K103H, P225P/H, T369T/I)
[4] = Sample 90 (K103K/N, Y181C, G190A)

CC(C)Nc1cccnc1N1CCN(C(=O)c2cc3cc(NS(C)(=O)=O)ccc3[nH]2)CC1 [DLV, delavirdine]
fold change in IC50, pol (Sample 31 (K103N)): 28.0 fold
pol/PR-RT ratio (Sample 31 (K103N)): 1.7
fold change in IC50, pol (Sample 33 (K103S)): 5.7 fold
pol/PR-RT ratio (Sample 33 (K103S)): 0.7
fold change in IC50, pol (Sample 34): 0.4 fold
pol/PR-RT ratio (Sample 34): 1.0
fold change in IC50, pol (Sample 35 (K103H)): 5.4 fold
pol/PR-RT ratio (Sample 35 (K103H)): 0.8
fold change in IC50, pol (Sample 36 (K103K/W)): 1.9 fold
pol/PR-RT ratio (Sample 36 (K103K/W)): 0.2
fold change in IC50, pol (Sample 38 (K103N)): 66.0 fold
pol/PR-RT ratio (Sample 38 (K103N)): 0.5
fold change in IC50, pol (Sample 39 (T369A)): 1.2 fold
pol/PR-RT ratio (Sample 39 (T369A)): 5.1
fold change in IC50, pol (Sample 42 (G190G/A)): 0.2 fold
pol/PR-RT ratio (Sample 42 (G190G/A)): 0.5
fold change in IC50, pol (Sample 45): 0.1 fold
pol/PR-RT ratio (Sample 45): 0.7
fold change in IC50, pol [1]: 5.4 fold
pol/PR-RT ratio [1]: 0.9
fold change in IC50, pol (Sample 50 (K103N)): 65.4 fold
pol/PR-RT ratio (Sample 50 (K103N)): 0.3
fold change in IC50, pol (Sample 51): 0.3 fold
pol/PR-RT ratio (Sample 51): 0.9
fold change in IC50, pol (Sample 52): 2.7 fold
pol/PR-RT ratio (Sample 52): 0.8
fold change in IC50, pol [2]: 250.0 fold
pol/PR-RT ratio [2]: 1.7
fold change in IC50, pol [3]: 140.0 fold and 140.00 fold
pol/PR-RT ratio [3]: 8.8
fold change in IC50, pol (Sample 64 (T369T/A)): 0.3 fold
pol/PR-RT ratio (Sample 64 (T369T/A)): 0.2
fold change in IC50, pol (Sample 69): 1.8 fold
pol/PR-RT ratio (Sample 69): 1.2
fold change in IC50, pol (Sample 72): 1.2 fold
pol/PR-RT ratio (Sample 72): 1.4
fold change in IC50, pol (Sample 80 (K103K/N, Y181Y/C)): 22.0 fold
pol/PR-RT ratio (Sample 80 (K103K/N, Y181Y/C)): 0.3
fold change in IC50, pol (Sample 81 (K103N, P225H)): 9.5 fold
pol/PR-RT ratio (Sample 81 (K103N, P225H)): 0.8
fold change in IC50, pol (Sample 84): 0.5 fold
pol/PR-RT ratio (Sample 84): 0.6
fold change in IC50, pol (Sample 85): 69.0 fold
pol/PR-RT ratio (Sample 85): 2.7
fold change in IC50, pol (Sample 87): 0.7 fold
pol/PR-RT ratio (Sample 87): 0.9
fold change in IC50, pol (Sample 89 (L1001, K103N)): 250.0 fold
pol/PR-RT ratio (Sample 89 (L1001, K103N)): 1.0
fold change in IC50, pol [4]: 4.8 fold
pol/PR-RT ratio [4]: 1.1
fold change in IC50, pol (Sample 92): 0.8 fold
pol/PR-RT ratio (Sample 92): 0.8
fold change in IC50, pol (Sample 93): 0.2 fold
pol/PR-RT ratio (Sample 93): 0.6

O=C1Nc2ccc(Cl)cc2[C@@](C#CC2CC2)(C(F)(F)F)O1 [EFV, efavirenz]
fold change in IC50, pol (Sample 31 (K103N)): 56.0 fold
pol/PR-RT ratio (Sample 31 (K103N)): 2.5
fold change in IC50, pol (Sample 33 (K103S)): 5.9 fold
pol/PR-RT ratio (Sample 33 (K103S)): 0.8
fold change in IC50, pol (Sample 34): 0.6 fold
pol/PR-RT ratio (Sample 34): 1.4
fold change in IC50, pol (Sample 35 (K103H)): 9.5 fold
pol/PR-RT ratio (Sample 35 (K103H)): 1.0
fold change in IC50, pol (Sample 36 (K103K/W)): 2.2 fold
pol/PR-RT ratio (Sample 36 (K103K/W)): 0.3
fold change in IC50, pol (Sample 38 (K103N)): 27.0 fold
pol/PR-RT ratio (Sample 38 (K103N)): 0.6
fold change in IC50, pol (Sample 39 (T369A)): 1.0 fold
pol/PR-RT ratio (Sample 39 (T369A)): 4.0
fold change in IC50, pol (Sample 42 (G190G/A)): 1.1 fold
pol/PR-RT ratio (Sample 42 (G190G/A)): 0.3
fold change in IC50, pol (Sample 45): 0.2 fold
pol/PR-RT ratio (Sample 45): 1.0
fold change in IC50, pol [1]: 30.2 fold
pol/PR-RT ratio [1]: 0.2
fold change in IC50, pol (Sample 50 (K103N)): 24.1 fold
pol/PR-RT ratio (Sample 50 (K103N)): 0.4
fold change in IC50, pol (Sample 51): 0.5 fold
pol/PR-RT ratio (Sample 51): 1.1
fold change in IC50, pol (Sample 52): 1.1 fold
pol/PR-RT ratio (Sample 52): 0.8
fold change in IC50, pol [2]: 153.9 fold
pol/PR-RT ratio [2]: 5.8
fold change in IC50, pol [3]: 202 fold and 202.0 fold and 202.00 fold
pol/PR-RT ratio [3]: 10.1
fold change in IC50, pol (Sample 64 (T369T/A)): 0.3 fold
pol/PR-RT ratio (Sample 64 (T369T/A)): 0.3
fold change in IC50, pol (Sample 69): 1.2 fold
pol/PR-RT ratio (Sample 69): 1.6
fold change in IC50, pol (Sample 72): 0.8 fold
pol/PR-RT ratio (Sample 72): 1.5
fold change in IC50, pol (Sample 80 (K103K/N, Y181Y/C)): 6.3 fold
pol/PR-RT ratio (Sample 80 (K103K/N, Y181Y/C)): 0.6
fold change in IC50, pol (Sample 81 (K103N, P225H)): 136.0 fold
pol/PR-RT ratio (Sample 81 (K103N, P225H)): 1.4
fold change in IC50, pol (Sample 84): 0.7 fold
pol/PR-RT ratio (Sample 84): 1.0
fold change in IC50, pol (Sample 85): 77.0 fold
pol/PR-RT ratio (Sample 85): 3.5
fold change in IC50, pol (Sample 87): 1.0 fold
pol/PR-RT ratio (Sample 87): 1.1
fold change in IC50, pol (Sample 89 (L1001, K103N)): 700.0 fold
pol/PR-RT ratio (Sample 89 (L1001, K103N)): 1.0
fold change in IC50, pol [4]: 66.0 fold
pol/PR-RT ratio [4]: 1.3
fold change in IC50, pol (Sample 92): 0.8 fold
pol/PR-RT ratio (Sample 92): 0.8
fold change in IC50, pol (Sample 93): 0.7 fold
pol/PR-RT ratio (Sample 93): 0.8

Cc1ccnc2c1NC(=O)c1cccnc1N2C1CC1 [NVP, nevirapine]
fold change in IC50, pol (Sample 31 (K103N)): 400.0 fold
pol/PR-RT ratio (Sample 31 (K103N)): 4.5
fold change in IC50, pol (Sample 33 (K103S)): 25.1 fold
pol/PR-RT ratio (Sample 33 (K103S)): 1.1
fold change in IC50, pol (Sample 34): 0.3 fold
pol/PR-RT ratio (Sample 34): 1.3
fold change in IC50, pol (Sample 35 (K103H)): 28.3 fold
pol/PR-RT ratio (Sample 35 (K103H)): 1.1
fold change in IC50, pol (Sample 36 (K103K/W)): 2.4 fold
pol/PR-RT ratio (Sample 36 (K103K/W)): 0.2
fold change in IC50, pol (Sample 38 (K103N)): 81.0 fold
pol/PR-RT ratio (Sample 38 (K103N)): 0.7
fold change in IC50, pol (Sample 39 (T369A)): 2.8 fold
pol/PR-RT ratio (Sample 39 (T369A)): 9.0
fold change in IC50, pol (Sample 42 (G190G/A)): 7.1 fold
pol/PR-RT ratio (Sample 42 (G190G/A)): 0.2
fold change in IC50, pol (Sample 45): 0.3 fold
pol/PR-RT ratio (Sample 45): 1.1
fold change in IC50, pol [1]: 400.0 fold
pol/PR-RT ratio [1]: 1.0
fold change in IC50, pol (Sample 50 (K103N)): 72.7 fold
pol/PR-RT ratio (Sample 50 (K103N)): 0.5
fold change in IC50, pol (Sample 51): 0.7 fold
pol/PR-RT ratio (Sample 51): 1.6
fold change in IC50, pol (Sample 52): 1.8 fold
pol/PR-RT ratio (Sample 52): 0.9
fold change in IC50, pol [2]: 400.0 fold
pol/PR-RT ratio [2]: 1.0
fold change in IC50, pol [3]: 400.0 fold and 400.00 fold
pol/PR-RT ratio [3]: 6.3
fold change in IC50, pol (Sample 64 (T369T/A)): 0.3 fold
pol/PR-RT ratio (Sample 64 (T369T/A)): 0.3
fold change in IC50, pol (Sample 69): 1.6 fold
pol/PR-RT ratio (Sample 69): 1.6
fold change in IC50, pol (Sample 72): 1.1 fold
pol/PR-RT ratio (Sample 72): 1.6
fold change in IC50, pol (Sample 80 (K103K/N, Y181Y/C)): 17.0 fold
pol/PR-RT ratio (Sample 80 (K103K/N, Y181Y/C)): 0.4
fold change in IC50, pol (Sample 81 (K103N, P225H)): 114.0 fold
pol/PR-RT ratio (Sample 81 (K103N, P225H)): 1.2
fold change in IC50, pol (Sample 84): 0.9 fold
pol/PR-RT ratio (Sample 84): 1.2
fold change in IC50, pol (Sample 85): 400.0 fold
pol/PR-RT ratio (Sample 85): 3.0
fold change in IC50, pol (Sample 87): 1.4 fold
pol/PR-RT ratio (Sample 87): 1.7
fold change in IC50, pol (Sample 89 (L1001, K103N)): 400.0 fold
pol/PR-RT ratio (Sample 89 (L1001, K103N)): 10.8
fold change in IC50, pol [4]: 400.0 fold
pol/PR-RT ratio [4]: 1.0
fold change in IC50, pol (Sample 92): 1.1 fold
pol/PR-RT ratio (Sample 92): 1.0
fold change in IC50, pol (Sample 93): 1.4 fold
pol/PR-RT ratio (Sample 93): 0.9
